# From patent US8846947B2, “Benzimidazoles and related analogs as sirtuin modulators” (GlaxoSmithKline LLC, priority 2008, dated 2014)
# Target: T1, SIRT1 (Homo sapiens, UniProt Q96EB6)
# T1 sequence (Q96EB6 1-747): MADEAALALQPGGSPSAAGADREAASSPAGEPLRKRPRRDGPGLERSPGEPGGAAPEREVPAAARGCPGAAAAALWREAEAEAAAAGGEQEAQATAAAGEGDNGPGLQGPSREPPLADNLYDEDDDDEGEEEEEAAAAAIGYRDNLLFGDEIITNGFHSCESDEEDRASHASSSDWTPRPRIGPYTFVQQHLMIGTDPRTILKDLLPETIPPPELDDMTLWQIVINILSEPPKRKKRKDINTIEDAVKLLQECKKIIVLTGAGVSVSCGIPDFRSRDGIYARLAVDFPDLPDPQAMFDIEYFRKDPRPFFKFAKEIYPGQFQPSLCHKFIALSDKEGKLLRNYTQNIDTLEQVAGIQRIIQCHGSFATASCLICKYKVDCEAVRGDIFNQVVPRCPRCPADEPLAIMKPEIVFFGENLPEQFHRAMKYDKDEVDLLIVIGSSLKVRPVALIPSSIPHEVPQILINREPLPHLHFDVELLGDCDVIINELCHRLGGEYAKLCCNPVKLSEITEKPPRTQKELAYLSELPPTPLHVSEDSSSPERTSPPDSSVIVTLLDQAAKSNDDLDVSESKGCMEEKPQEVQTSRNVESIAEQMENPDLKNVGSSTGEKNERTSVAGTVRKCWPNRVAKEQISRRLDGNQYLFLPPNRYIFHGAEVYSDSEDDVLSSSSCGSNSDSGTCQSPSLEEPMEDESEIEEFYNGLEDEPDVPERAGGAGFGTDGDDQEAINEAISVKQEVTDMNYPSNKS
# Experiment: Mass spectrometry based SIRT1 deacetylase activation assay (acetylated p53-derived peptide substrate)
# Format: biochemical
# Source text: A mass spectrometry based assay was used to identify modulators of SIRT1 activity. The mass spectrometry based assay utilizes a peptide having 20 amino acid residues as follows: Ac-EE-K(biotin)-GQSTSSHSK(Ac)NleSTEG-K(5TMR)-EE-NH2 (SEQ ID NO: 1) wherein K(Ac) is an acetylated lysine residue and Nle is a norleucine. The peptide is labeled with the fluorophore 5TMR (excitation 540 nm/emission 580 nm) at the C-terminus. The sequence of the peptide substrate is based on p53 with several modifications. In addition, the methionine residue naturally present in the sequence was replaced with the norleucine because the methionine may be susceptible to oxidation during synthesis and purification.
# The mass spectrometry assay is conducted as follows: 0.5 μM peptide substrate and 120 μM βNAD^+ is incubated with 10 nM SIRT1 for 25 minutes at 25° C. in a reaction buffer (50 mM Tris-acetate pH 8, 137 mM NaCl, 2.7 mM KCl, 1 mM MgCl2, 5 mM DTT, 0.05% BSA). Test compounds may be added to the reaction as described above. […] After the 25 minute incubation with SIRT1, 10 μL of 10% formic acid is added to stop the reaction. Reactions are sealed and frozen for later mass spec analysis. Determination of the mass of the substrate peptide allows for precise determination of the degree of acetylation (i.e. starting material) as compared to deacetylated peptide (product).
# A control for inhibition of sirtuin activity is conducted by adding 1 μL of 500 mM nicotinamide as a negative control at the start of the reaction (e.g., permits determination of maximum sirtuin inhibition). A control for activation of sirtuin activity is conducted using 10 nM of sirtuin protein, with 1 μL of DMSO in place of compound, to determine the amount of deacetylation of the substrate at a given timepoint within the linear range of the assay. This timepoint is the same as that used for test compounds and, within the linear range, the endpoint represents a change in velocity.
# For the above assay, SIRT1 protein was expressed and purified as follows. […] The protein was expressed by induction with 1 mM IPTG as an N-terminal His-tag fusion protein at 18° C. overnight and harvested at 30,000×g. Cells were lysed with lysozyme in lysis buffer (50 mM Tris-HCl, 2 mM Tris[2-carboxyethyl]phosphine (TCEP), 10 μM ZnCl2, 200 mM NaCl) and further treated with sonication for 10 min for complete lysis. The protein was purified over a Ni-NTA column (Amersham) and fractions containing pure protein were pooled, concentrated and run over a sizing column (Sephadex S200 26/60 global). The peak containing soluble protein was collected and run on an Ion-exchange column (MonoQ). Gradient elution (200 mM-500 mM NaCl) yielded pure protein. This protein was concentrated and dialyzed against dialysis buffer (20 mM Tris-HCl, 2 mM TCEP) overnight. The protein was aliquoted and frozen at −80° C. until further use.
# Sirtuin modulating compounds that activated SIRT1 were identified using the assay described above and are shown below in Table 1. The EC1.5 values for the activating compounds are represented by A (EC1.5<1.0 uM), B (EC1.5 1-25 uM), C (EC1.5 >25 uM). The percent maximum fold activation is represented by A (Fold activation >200%) or B (Fold Activation <200%).
Compound,EC1.5,Fold Act. (percent maximum fold activation)
O=C(Nc1nccs1)c1cccc2[nH]c(-c3ccccc3)nc12 [Compound 200],B (EC1.5 1-25 uM),A (Fold activation >200%)
O=C(Nc1cnccn1)c1cccc2[nH]c(-c3ccccc3)nc12 [Compound 201],B (EC1.5 1-25 uM),A (Fold activation >200%)
O=C(Nc1nccs1)c1cccc2[nH]c(-c3cccc(C(F)(F)F)c3)nc12 [Compound 202],A (EC1.5<1.0 uM),A (Fold activation >200%)
O=C(Nc1cnccn1)c1cccc2[nH]c(-c3cccc(C(F)(F)F)c3)nc12 [Compound 203],A (EC1.5<1.0 uM),A (Fold activation >200%)
O=C(Nc1nccs1)c1cccc2[nH]c(-c3cccc(OC(F)(F)F)c3)nc12 [Compound 204],A (EC1.5<1.0 uM),A (Fold activation >200%)
O=C(Nc1cnccn1)c1cccc2[nH]c(-c3cccc(OC(F)(F)F)c3)nc12 [Compound 205],A (EC1.5<1.0 uM),A (Fold activation >200%)
Cc1csc(NC(=O)c2cccc3[nH]c(-c4cccc(C(F)(F)F)c4)nc23)n1 [Compound 206],B (EC1.5 1-25 uM),A (Fold activation >200%)
O=C(Nc1cc[nH]n1)c1cccc2[nH]c(-c3cccc(C(F)(F)F)c3)nc12 [Compound 207],B (EC1.5 1-25 uM),A (Fold activation >200%)
"O=C(Nc1nccs1)c1cccc2[nH]c(-c3ccccc3C(F)(F)F)nc12 [Compound 208, N-(thiazol-2-yl)-2-(2-(trifluoromethyl)phenyl)-1H-benzo[d]imidazole-4-carboxamide]",A (EC1.5<1.0 uM),A (Fold activation >200%)
O=C(Nc1nccs1)c1cccc2[nH]c(-c3ccc(C(F)(F)F)cc3)nc12 [Compound 209],C (EC1.5 >25 uM),B (Fold Activation <200%)
O=C(Nc1nccs1)c1cccc2[nH]c(-c3cc(F)cc(C(F)(F)F)c3)nc12 [Compound 210],B (EC1.5 1-25 uM),B (Fold Activation <200%)
N#Cc1cccc(-c2nc3c(C(=O)Nc4nccs4)cccc3[nH]2)c1 [Compound 211],B (EC1.5 1-25 uM),A (Fold activation >200%)
O=C(Nc1nccs1)c1cccc2[nH]c(-c3cccc(F)c3)nc12 [Compound 212],B (EC1.5 1-25 uM),A (Fold activation >200%)
O=C(Nc1nccs1)c1cccc2[nH]c(-c3cc(F)cc(F)c3)nc12 [Compound 213],B (EC1.5 1-25 uM),A (Fold activation >200%)
O=C(Nc1nccs1)c1cccc2[nH]c(-c3ccc(F)c(F)c3)nc12 [Compound 214],C (EC1.5 >25 uM),B (Fold Activation <200%)
O=C(Nc1nccs1)c1cccc2[nH]c(-c3ccccn3)nc12 [Compound 215],B (EC1.5 1-25 uM),A (Fold activation >200%)
O=C(Nc1nccs1)c1cccc2[nH]c(-c3ccc(F)c(C(F)(F)F)c3)nc12 [Compound 216],C (EC1.5 >25 uM),B (Fold Activation <200%)
O=C(Nc1nccs1)c1cccc2[nH]c(-c3cccc(C(F)(F)F)c3F)nc12 [Compound 217],C (EC1.5 >25 uM),B (Fold Activation <200%)

Compound,EC1.5,Fold Act. (percent maximum fold activation)
O=C(Nc1nccs1)c1cccc2[nH]c(-c3cc(C(F)(F)F)ccc3F)nc12 [Compound 218],B (EC1.5 1-25 uM),A (Fold activation >200%)
O=C(Nc1nccs1)c1cccc2[nH]c(-c3cccc(Cl)c3)nc12 [Compound 219],B (EC1.5 1-25 uM),A (Fold activation >200%)
O=C(Nc1nccs1)c1cccc2[nH]c(-c3cc(F)cc(Cl)c3)nc12 [Compound 220],B (EC1.5 1-25 uM),A (Fold activation >200%)
O=C(Nc1nccs1)c1cccc2[nH]c(-c3ccc4c(c3)OC(F)(F)O4)nc12 [Compound 221],C (EC1.5 >25 uM),B (Fold Activation <200%)
O=C(Nc1nccs1)c1cccc2[nH]c(-c3cccc(-c4ccccc4)c3)nc12 [Compound 222],C (EC1.5 >25 uM),B (Fold Activation <200%)
O=C(Nc1nccs1)c1cccc2[nH]c(-c3ccc(-c4ccccc4)cc3)nc12 [Compound 223],C (EC1.5 >25 uM),B (Fold Activation <200%)
O=C(Nc1nccs1)c1cccc2[nH]c(-c3cccc(Oc4ccccc4)c3)nc12 [Compound 224],B (EC1.5 1-25 uM),A (Fold activation >200%)
O=C(Nc1nccs1)c1cccc2[nH]c(-c3cccc(N4CCCCC4)c3)nc12 [Compound 225],B (EC1.5 1-25 uM),A (Fold activation >200%)
O=C(Nc1nccs1)c1cccc2[nH]c(-c3cccc(N4CCOCC4)c3)nc12 [Compound 226],A (EC1.5<1.0 uM),A (Fold activation >200%)
O=C(Nc1nccs1)c1cccc2[nH]c(-c3cccnc3)nc12 [Compound 227],B (EC1.5 1-25 uM),A (Fold activation >200%)
O=C(Nc1nccs1)c1cccc2[nH]c(-c3ccc4ccccc4c3)nc12 [Compound 228],B (EC1.5 1-25 uM),A (Fold activation >200%)
O=C(Nc1nccs1)c1cccc2[nH]c(-c3ccoc3)nc12 [Compound 229],B (EC1.5 1-25 uM),A (Fold activation >200%)
Cc1cc(-c2nc3c(C(=O)Nc4nccs4)cccc3[nH]2)no1 [Compound 230],A (EC1.5<1.0 uM),B (Fold Activation <200%)
O=C(Nc1nccs1)c1cccc2[nH]c(-c3ccnc(Cl)c3)nc12 [Compound 231],A (EC1.5<1.0 uM),A (Fold activation >200%)
Cc1nnc(NC(=O)c2cccc3[nH]c(-c4cccc(C(F)(F)F)c4)nc23)s1 [Compound 232],B (EC1.5 1-25 uM),A (Fold activation >200%)
O=C(Nc1ccccn1)c1cccc2[nH]c(-c3cccc(C(F)(F)F)c3)nc12 [Compound 233],B (EC1.5 1-25 uM),A (Fold activation >200%)
O=C(Nc1cccnc1)c1cccc2[nH]c(-c3cccc(C(F)(F)F)c3)nc12 [Compound 234],A (EC1.5<1.0 uM),A (Fold activation >200%)
